In patent publication US20080269298A1, “Benzimidazol-1-YL-thiophene compounds for the treatment of cancer” (priority 2002, published 2008):

Key:
[1] = system: prostate (PC3) tumor cell line; assay: Methylene Blue Growth Inhibition Assay, PC3; type: cell-based; conditions: Homo sapiens, 72 h; Cell Line PC3, 3 days; read-out: MeB IC50
In short: (§1)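 Growth inhibition is measured as methylene blue-stained biomass (OD 620 nm) after 3 days of compound treatment, relative to vehicle controls. Cells grow in high-glucose DMEM with 10% FBS and 0.3% final DMSO; IC50 comes from nonlinear regression.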

[2] = system: lung (H460) tumor cell line; assay: Methylene Blue Growth Inhibition Assay, H460; type: cell-based; conditions: Homo sapiens, NCI-H460, 72 h; Cell Line H460, 3 days; read-out: MeB IC50
In short: (§2)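 Seeded HFF, RKO or H460 cells treated 3 days with compound (0.3% DMSO), then stained with methylene blue; OD 620 nm, percent inhibition vs vehicle, IC50 by regression.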

[3] = system: Normal Human foreskin fibroblasts (HFF); assay: Methylene Blue Growth Inhibition Assay, HFF; type: cell-based; conditions: 72 h, Cell Line HFF, 3 days, read-out: MeB IC50
In short: as §2

PLK1 kinase domain = molecular target: T1, PLK1 kinase domain (Homo sapiens, UniProt P53350); assay: Assay for Inhibition of PLK1 (SPA enzyme activity); type: biochemical; conditions: 2 μM ATP, read-out: Ave pIC50 PLK Enzyme Inhibition (converted)
T1 construct: made in house; host or cells: baculovirus-infected T. ni insect cells

[4] = system: colon (RKO) tumor cell line; assay: Methylene Blue Growth Inhibition Assay, RKO; type: cell-based; conditions: Homo sapiens, 72 h, 3 days, read-out: MeB IC50
In short: as §2

[5] = system: breast tumor (MCF7) cell line; assay: Methylene Blue Growth Inhibition Assay, MCF7; type: cell-based; conditions: Homo sapiens, 72 h; Cell Line MCF7, 3 days; read-out: MeB IC50
In short: as §1

[6] = system: colon (HCT116) tumor cell line; assay: Methylene Blue Growth Inhibition Assay, HCT116; type: cell-based; conditions: Homo sapiens, HCT-116, 72 h; Cell Line HCT116, 3 days; read-out: MeB IC50
In short: as §1

A549 = assay: Methylene Blue Growth Inhibition Assay, A549; type: cell-based; conditions: Homo sapiens; Cell Line A549; read-out: MeB IC50

T1 sequence (P53350 21-346): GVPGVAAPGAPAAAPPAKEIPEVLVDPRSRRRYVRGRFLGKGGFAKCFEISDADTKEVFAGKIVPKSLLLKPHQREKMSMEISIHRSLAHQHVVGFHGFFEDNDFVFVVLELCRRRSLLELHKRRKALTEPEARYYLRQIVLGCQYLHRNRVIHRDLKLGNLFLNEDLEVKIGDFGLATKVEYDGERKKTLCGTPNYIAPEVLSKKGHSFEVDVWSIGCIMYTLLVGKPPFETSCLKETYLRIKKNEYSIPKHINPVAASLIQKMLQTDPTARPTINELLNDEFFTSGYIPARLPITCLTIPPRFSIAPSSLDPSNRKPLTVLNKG

IC50 [1] | IC50 [2] | IC50 (PLK1 kinase domain) | IC50 [4] | IC50 [5] | IC50 [6] | IC50 (A549) | Structure (SMILES) | IC50 [3]
> 10000 nM | 1000 to 10000 nM | < 100 nM | 1000 to 10000 nM | 1000 to 10000 nM | 1000 to 10000 nM | 1000 to 10000 nM | COc1cc2c(cc1OCCCN1CCCC1=O)ncn2-c1cc(OCc2ccccc2C(F)(F)F)c(C(N)=O)s1 [Example 134, 5-(6-(Methyloxy)-5-{[3-(2-oxo-1-pyrrolidinyl)propyl]oxy}-1H-benzimidazol-1-yl)-3-({[2-(trifluoromethyl)phenyl]methyl}oxy)-2-thiophenecarboxamide] | > 10000 nM
> 10000 nM | < 1000 nM | < 100 nM | < 1000 nM | < 1000 nM | < 1000 nM | < 1000 nM | COc1cc2ncn(-c3cc(OCc4ccccc4OC(F)F)c(C(N)=O)s3)c2cc1OC [Example 108, 3-{[2-(Difluoromethoxy)benzyl]oxy}-5-(5,6-dimethoxy-1H-benzimidazol-1-yl)thiophene-2-carboxamide] | > 10000 nM
1000 to 10000 nM | < 1000 nM | < 100 nM | < 1000 nM | 1000 to 10000 nM | 1000 to 10000 nM | < 1000 nM | COc1cc2ncn(-c3cc(OCc4ccccc4OC(F)(F)F)c(C(N)=O)s3)c2cc1OC [Example 107, 5-(5,6-Dimethoxy-1H-benzimidazol-1-yl)-3-{[2-(trifluoromethoxy)benzyl]oxy}thiophene-2-carboxamide] | 1000 to 10000 nM
1000 to 10000 nM | 1000 to 10000 nM | < 100 nM | < 1000 nM | < 1000 nM | < 1000 nM | 1000 to 10000 nM | NC(=O)c1sc(-n2cnc3ccc(OCC4CCNCC4)cc32)cc1OCc1ccccc1C(F)(F)F [Example 143, 5-{6-[(4-Piperidinylmethyl)oxy]-1H-benzimidazol-1-yl}-3-({[2-(trifluoromethyl)phenyl]-methyl}oxy)-2-thiophenecarboxamide] | 1000 to 10000 nM
> 10000 nM | 1000 to 10000 nM | < 100 nM | < 1000 nM | 1000 to 10000 nM | 1000 to 10000 nM | 1000 to 10000 nM | COc1cc2ncn(-c3cc(OCc4ccncc4Br)c(C(N)=O)s3)c2cc1OC [Example 120, 3-[(3-Bromopyridin-4-yl)methoxy]-5-(5,6-dimethoxy-1H-benzimidazol-1-yl)thiophene-2-carboxamide] | > 10000 nM
1000 to 10000 nM | < 1000 nM | < 100 nM | < 1000 nM | < 1000 nM | < 1000 nM | < 1000 nM | COc1cc2ncn(-c3cc(OC(C)c4ccccc4C(F)(F)F)c(C(N)=O)s3)c2cc1OC (stereo not shown) [Example 127] | 1000 to 10000 nM

The remaining lines, values behind:

Structure (SMILES) | IC50 [1] | IC50 [2] | IC50 (PLK1 kinase domain) | IC50 [4] | IC50 [5] | IC50 [6] | IC50 (A549) | IC50 [3]
COc1cc2ncn(-c3cc(OS(=O)(=O)c4ccccc4C)c(C(N)=O)s3)c2cc1OC [Example 154, 2-(Aminocarbonyl)-5-(5,6-dimethoxy-1H-benzimidazol-1-yl)thien-3-yl-2-methylbenzenesulfonate] | > 10000 nM | < 1000 nM | < 100 nM | < 1000 nM | < 1000 nM | 1000 to 10000 nM | < 1000 nM | > 10000 nM
COc1cc2ncn(-c3cc(OCc4cccnc4F)c(C(N)=O)s3)c2cc1OC [Example 102, 5-(5,6-Dimethoxy-1H-benzimidazol-1-yl)-3-[(2-fluoropyridin-3-yl)methoxy]thiophene-2-carboxamide] | > 10000 nM | 1000 to 10000 nM | < 100 nM | < 1000 nM | 1000 to 10000 nM | 1000 to 10000 nM | 1000 to 10000 nM | > 10000 nM
CS(=O)(=O)c1ccc2ncn(-c3cc(OCc4ccccc4C(F)(F)F)c(C(N)=O)s3)c2c1 [Example 121] | > 10000 nM | 1000 to 10000 nM | < 100 nM | 1000 to 10000 nM | 1000 to 10000 nM | 1000 to 10000 nM | 1000 to 10000 nM | > 10000 nM
COc1cc2ncn(-c3cc(OCc4cc5c(cc4Cl)OCO5)c(C(N)=O)s3)c2cc1OC [Example 91, 3-[(6-Chloro-1,3-dibenzodioxol-5-yl)methoxy]-5-(5,6-dimethoxy-1H-benzimidazol-1-yl)thiophene-2-carboxamide] | 1000 to 10000 nM | < 1000 nM | < 100 nM | < 1000 nM | < 1000 nM | < 1000 nM | < 1000 nM | > 10000 nM
COc1cc2ncn(-c3cc(OCc4cccnc4Cl)c(C(N)=O)s3)c2cc1OC [Example 101, 3-[(2-Chloropyridin-3-yl)methoxy]-5-(5,6-dimethoxy-1H-benzimidazol-1-yl)thiophene-2-carboxamide] | 1000 to 10000 nM | 1000 to 10000 nM | < 100 nM | < 1000 nM | 1000 to 10000 nM | 1000 to 10000 nM | 1000 to 10000 nM | > 10000 nM
